Several values for one entry are separate records, joined by “and”; a condition that tells them apart may be missing. Identical values can stand only once.
Assays:
[1] = test system: Plasmodium falciparum; experiment: NOVARTIS: Inhibition of Plasmodium falciparum W2 (drug-resistant) proliferation in erythrocyte-based infection assay; assay type: functional, organism-based
[2] = NOVARTIS: Cytotoxicity against human hepatocellular carcinoma cell line (Huh7); assay type: toxicity, cell-based, Huh-7; conditions: Huh7 cells (hepatocellular carcinoma cell line)
[3] = test system: Plasmodium falciparum; experiment: NOVARTIS: Inhibition of Plasmodium falciparum 3D7 (drug-susceptible) proliferation in erythrocyte-based infection assay; assay type: functional, organism-based
[4] = Plasmodium falciparum, W2, read-out: EC50

For CCCCCCc1ccc(C(=O)Oc2ccccc2-c2nc3cc(C)ccn3c2NC(C)(C)CC(C)(C)C)cc1, the EC50 [1, 4] was 162 nM, the CC50 [2] was > 13800 nM and the EC50 ([3]; Plasmodium falciparum, 3D7) was 813 nM.
For CCCn1c(C=NNc2nc3ccccc3[nH]2)nc2ccccc21, the EC50 [1, 4] was 5110 nM, the CC50 [2] was 62800 nM and the EC50 ([3]; Plasmodium falciparum, 3D7) was 5560 nM.
For COc1ccc(CCN2CCC(Nc3nc4ccccc4n3Cc3ccc(F)cc3)CC2)cc1 [ASTEMIZOLE], the EC50 [1, 4] was 711 nM, the CC50 [2] was 20900 nM and the EC50 ([3]; Plasmodium falciparum, 3D7) was 447 nM.
For CCCCNCCOCCOc1ccc(Br)cc1, the EC50 [1, 4] was 1610 nM, the CC50 [2] was 35700 nM and the EC50 ([3]; Plasmodium falciparum, 3D7) was > 11700 nM.
With Cc1ccc(-c2nc3ncccc3o2)cc1NC(=O)COc1ccc(C(C)(C)C)cc1 the EC50 [1, 4] was 1050 nM, the CC50 [2] was > 100000 nM and the EC50 ([3]; Plasmodium falciparum, 3D7) was 420 nM.
In the case of Cc1cc2c(cc1C)NC(c1ccc(Cl)c(F)c1)C1=C(CC(C)(C)CC1=O)N2 (centres undefined), the EC50 [1, 4] is reported as 1000 nM, the CC50 [2] is reported as 64500 nM and the EC50 ([3]; Plasmodium falciparum, 3D7) is reported as 1070 nM.
In the case of CSC1=C(C#N)C(c2ccc(O)cc2)CC(=O)N1 (centres undefined), the EC50 [1, 4] is reported as 3280 nM, the CC50 [2] is reported as > 100000 nM and the EC50 ([3]; Plasmodium falciparum, 3D7) is reported as > 9510 nM.
In the case of Cc1ccc2nc(-c3ccccc3)cc(C(=O)Nc3ccc(Cl)cc3)c2c1, the EC50 [1, 4] is reported as 1040 nM, the CC50 [2] is reported as > 10000 nM and the EC50 ([3]; Plasmodium falciparum, 3D7) is reported as > 1610 nM.
COc1ccc(C2CC(=O)C3=C(C2)NC(C)=C(C(=O)OC2CCCCC2)C3c2ccc(F)cc2)cc1OC (centres undefined) gave an EC50 [1, 4] of 53 nM, a CC50 [2] of 15200 nM and an EC50 ([3]; Plasmodium falciparum, 3D7) of 138 nM.
In the case of N#Cc1c(N)nc2sc(C(=O)Nc3ccc(Br)cc3)c(N)c2c1-c1ccccc1, the EC50 [1, 4] is reported as 763 nM, the CC50 [2] is reported as > 100000 nM and the EC50 ([3]; Plasmodium falciparum, 3D7) is reported as 8210 nM.
In the case of CCCCCCCCC(=O)NCCCCNc1ccnc2cc(Cl)ccc12, the EC50 [1, 4] is reported as 286 nM, the CC50 [2] is reported as 5600 nM and the EC50 ([3]; Plasmodium falciparum, 3D7) is reported as 1140 nM.
Work on CN(C)c1oc(-c2ccc(Cl)cc2Cl)nc1[P+](c1ccccc1)(c1ccccc1)c1ccccc1 yielded an EC50 [1, 4] of 365 nM, a CC50 [2] of 11600 nM and an EC50 ([3]; Plasmodium falciparum, 3D7) of 230 nM.
For CCC12C(=O)C(CC)(C(c3ccccc3)=C1c1ccccc1)C1C(=O)N(c3cccc(C(F)(F)F)c3)C(=O)C12 (centres undefined), the EC50 [1, 4] was 401 nM, the CC50 [2] was > 100000 nM and the EC50 ([3]; Plasmodium falciparum, 3D7) was 2410 nM.
With c1ccc(CSc2nnc3c(n2)[nH]c2ccccc23)cc1 the EC50 [1, 4] was 1320 nM, the EC50 ([1]; read-out: EC50) was > 748 nM and the CC50 [2] was > 10000 nM. For the same compound, the EC50 [3] was > 1060 nM and the EC50 ([3]; Plasmodium falciparum, 3D7) was 1300 nM.
With O=Cc1c(OCc2ccc(Cl)cc2Cl)ccc2ccccc12 the EC50 [1, 4] was 426 nM, the CC50 [2] was > 10000 nM and the EC50 ([3]; Plasmodium falciparum, 3D7) was 719 nM.
In the case of CCCCCCCCNC(C)C(O)c1ccc(SC(C)C)cc1 (centres undefined) [SULOCTIDIL], the EC50 [1, 4] is reported as 603 nM, the CC50 [2] is reported as 10500 nM and the EC50 ([3]; Plasmodium falciparum, 3D7) is reported as 82.4 nM.
With COc1cc(OC)c(OC)cc1CN1CCN(C(C)C)CC1 the EC50 [1, 4] was > 1480 nM, the CC50 [2] was > 10000 nM and the EC50 ([3]; Plasmodium falciparum, 3D7) was > 1010 nM.
With Oc1ccc2cc(-c3nc4ccccc4[nH]3)c3nc4ccccc4n3c2c1 the EC50 [1, 4] was 970 nM, the CC50 [2] was > 10000 nM and the EC50 ([3]; Plasmodium falciparum, 3D7) was > 1050 nM.
With O=C1c2ccccc2C(=O)C12C(c1ccc(Br)cc1)N(c1ccccc1)C1(C(=O)c3ccccc3C1=O)C2c1ccc(Br)cc1 (centres undefined) the EC50 [1, 4] was > 914 nM, the CC50 [2] was > 10000 nM and the EC50 ([3]; Plasmodium falciparum, 3D7) was 510 nM.
Work on C[n+]1c2n(c3ccccc31)N=C(c1ccccc1)CS2 yielded an EC50 [1, 4] of 347 nM, a CC50 [2] of 45100 nM and an EC50 ([3]; Plasmodium falciparum, 3D7) of 454 nM.
For COC(=O)c1cn2c(=O)c3ccccc3nc2c2ccccc12, the EC50 [1, 4] was > 1250 nM, the CC50 [2] was > 10000 nM and the EC50 ([3]; Plasmodium falciparum, 3D7) was > 385 nM.
For COC(=O)c1ccc(C2C3=C(O)CC(c4ccc(C)cc4)CC3=Nc3ccccc3N2C(=O)c2cccs2)cc1 (centres undefined), the EC50 ([1]; read-out: EC50) was 808 nM and 264 nM, the CC50 [2] was > 100000 nM and the EC50 [3] was 328 nM and 88 nM.
In the case of COc1ccc(CC(=O)Nc2sc3c(c2C(=O)Nc2cccc4ccccc24)CCCC3)cc1, the EC50 [1, 4] is reported as 1130 nM, the CC50 [2] is reported as > 10000 nM and the EC50 ([3]; Plasmodium falciparum, 3D7) is reported as > 1250 nM.
For COC(=O)c1cn([C@@H]2C[C@@H](C(=O)NCc3cccc(C(F)(F)F)c3)N(C3CCN(Cc4ccccc4)CC3)C2)nn1, the EC50 [1, 4] was 1980 nM, the CC50 [2] was > 100000 nM and the EC50 ([3]; Plasmodium falciparum, 3D7) was 1520 nM.
With Cc1cc(C)c(S(=O)(=O)N2CCC(NC(=O)c3ccccc3)CC2)c(C)c1 the EC50 [1] was “No fit”, the CC50 [2] was > 100000 nM and the EC50 ([3]; Plasmodium falciparum, 3D7) was 1070 nM.
In the case of CCOC(=O)c1cnc2ccc3c(c(C)c(C)n3C)c2c1O, the EC50 [1, 4] is reported as 370 nM, the CC50 [2] is reported as > 10000 nM and the EC50 ([3]; Plasmodium falciparum, 3D7) is reported as 370 nM.
For COc1ccc(-n2c(=S)[nH]c3cc(C(=O)Nc4cccc(C)c4)ccc3c2=O)cc1OC, the EC50 [1, 4] was > 1250 nM, the CC50 [2] was > 10000 nM and the EC50 ([3]; Plasmodium falciparum, 3D7) was > 1040 nM.
With COc1ccc2nc(C)cc(Nc3cccc(O)c3)c2c1 the EC50 [1, 4] was 347 nM, the CC50 [2] was 51000 nM and the EC50 ([3]; Plasmodium falciparum, 3D7) was 228 nM.
In the case of COc1ccc(C2c3[nH]c4ccccc4c3C[C@@H]3C(=O)N(CCC(C)C)CC(=O)N23)cc1 (some centres undefined), the EC50 [1, 4] is reported as 1110 nM, the CC50 [2] is reported as > 10000 nM and the EC50 ([3]; Plasmodium falciparum, 3D7) is reported as > 1250 nM.
With CCOc1cc(C2C(C(=O)OC)=CNC=C2C(=O)OC)cc(Br)c1OCC the EC50 [1, 4] was 277 nM, the CC50 [2] was > 100000 nM and the EC50 ([3]; Plasmodium falciparum, 3D7) was 388 nM.
For Cc1cc(C)cc(NC(=O)c2cc(-c3ccc(Cl)cc3)nc3ccccc23)c1, the EC50 [1, 4] was > 716 nM, the CC50 [2] was > 10000 nM and the EC50 ([3]; Plasmodium falciparum, 3D7) was > 1250 nM.
In the case of COc1ccc(C2=C(c3ccc(OC)cc3)C3(c4ccccc4)C(=O)C2(c2ccccc2)C2C(=O)N(c4ccc(OC)cc4[N+](=O)[O-])C(=O)C23)cc1 (centres undefined), the EC50 [1, 4] is reported as 316 nM, the CC50 [2] is reported as > 100000 nM and the EC50 ([3]; Plasmodium falciparum, 3D7) is reported as 353 nM.
COc1ccc2nc(C)cc(Nc3ccc(Cl)c(Cl)c3)c2c1 gave an EC50 [1, 4] of 426 nM, a CC50 [2] of 6250 nM and an EC50 ([3]; Plasmodium falciparum, 3D7) of 249 nM.
In the case of Oc1ccc(-c2ccc(F)cc2)cc1CN1CCCCCC1, the EC50 [1, 4] is reported as 19.6 nM, the CC50 [2] is reported as > 100000 nM and the EC50 ([3]; Plasmodium falciparum, 3D7) is reported as 110 nM.

Reference: ChEMBL document CHEMBL1156829 (Proc Natl Acad Sci U S A, 2008)
